Laboratory results as given in patent publication US20230399311A1, “POLYMORPHS OF SUBSTITUTED ISOQUINOLINE-BASED RHO KINASE INHIBITORS” (BioAxone BioSciences, Inc., priority 2022, published 2023).

Columns and labels:
[1] = Partition coefficient, octanol/water; type: physicochemical
Experimental: The partition coefficient of NRL-1049 adipate was determined according to the following procedure. In a 500 mL separation funnel, 120 mL water and 120 mL octanol were combined, mixed well, and allowed to separate into two layers. Approximately 100 mL of the organic phase layer and approximately 100 mL from the aqueous phase layer were removed and utilized in the following steps. Three 100 mL separation funnels were labeled as Sample 1, Sample 2, and Sample 3. […] The P values were as follows: Sample 1=0.0053, Sample 2=0.0049, Sample 3=0.0050.

[2] = pH-dependent stability in buffer solutions; type: physicochemical
Experimental: The solutions were stored in vials at 25° C., 40° C., and 60° C. […] Purity was measured by HPLC.

C[C@@H](N)C1CCN(S(=O)(=O)c2cccc3cnccc23)CC1.O=C(O)CCCCC(=O)O [NRL-1049 Adipate]
4.5: pH ([2]; Acetate Buffer, 2 Wk, 40° C.) | pH ([2]; Acetate Buffer, 2 Wk, 60° C.) | pH ([2]; Acetate Buffer, 3 Wk, 40° C.) | pH ([2]; Acetate Buffer, 3 Wk, 60° C.)
1.4: pH ([2]; Hydroxide Buffer, 1 Wk, 25° C.) | pH ([2]; Hydroxide Buffer, 1 Wk, 40° C.) | pH ([2]; Hydroxide Buffer, 2 Wk, 25° C.) | pH ([2]; Hydroxide Buffer, 2 Wk, 40° C.) | pH ([2]; Hydroxide Buffer, 3 Wk, 25° C.) | pH ([2]; Hydroxide Buffer, 3 Wk, 40° C.)
0.0053: Partition coefficient P (organic phase/aqueous phase) ([1]; Sample 1: 40 mL aqueous phase, 10 mL organic phase (octanol/water))
99.5 % Area: Purity (% Area) ([2]; Phosphate Buffer, Time 0)
6.9: pH ([2]; Phosphate Buffer, 1 Wk, 60° C.)
highly hydrophilic: Hydrophilicity (in words) ([1]; from octanol/water P values)
6.8: pH ([2]; Phosphate Buffer, 3 Wk, 60° C.)
83.0 % Area: Purity (% Area) ([2]; Phosphate Buffer, 2 Wk, 60° C.)
6.7: pH ([2]; Phosphate Buffer, 2 Wk, 25° C.) | pH ([2]; Phosphate Buffer, 2 Wk, 40° C.) | pH ([2]; Phosphate Buffer, 2 Wk, 60° C.) | pH ([2]; Phosphate Buffer, 3 Wk, 25° C.) | pH ([2]; Phosphate Buffer, 3 Wk, 40° C.) | pH ([2]; Phosphate Buffer, Time 0)
91.3 % Area: Purity (% Area) ([2]; Phosphate Buffer, 1 Wk, 60° C.)
99.6 % Area: Purity (% Area) ([2]; Acetate Buffer, 3 Wk, 25° C.) | Purity (% Area) ([2]; Acetate Buffer, 3 Wk, 60° C.) | Purity (% Area) ([2]; Hydroxide Buffer, 1 Wk, 60° C.) | Purity (% Area) ([2]; Hydroxide Buffer, 2 Wk, 40° C.) | Purity (% Area) ([2]; Hydroxide Buffer, 2 Wk, 60° C.) | Purity (% Area) ([2]; Hydroxide Buffer, 3 Wk, 25° C.) | Purity (% Area) ([2]; Hydroxide Buffer, 3 Wk, 40° C.) | Purity (% Area) ([2]; Hydroxide Buffer, 3 Wk, 60° C.)
most stable: Stability as a function of pH (in words) ([2]; pH 1.2 solution)
0.0050: Partition coefficient P (organic phase/aqueous phase) ([1]; Sample 3: 10 mL aqueous phase, 40 mL organic phase (octanol/water))
78.8 % Area: Purity (% Area) ([2]; Phosphate Buffer, 3 Wk, 60° C.)
1.3: pH ([2]; Hydroxide Buffer, 1 Wk, 60° C.) | pH ([2]; Hydroxide Buffer, 2 Wk, 60° C.) | pH ([2]; Hydroxide Buffer, 3 Wk, 60° C.) | pH ([2]; Hydroxide Buffer, Time 0)
4.7: pH ([2]; Acetate Buffer, 1 Wk, 40° C.) | pH ([2]; Acetate Buffer, 1 Wk, 60° C.)
4.6: pH ([2]; Acetate Buffer, 2 Wk, 25° C.) | pH ([2]; Acetate Buffer, 3 Wk, 25° C.) | pH ([2]; Acetate Buffer, Time 0)
94.9 % Area: Purity (% Area) ([2]; Phosphate Buffer, 3 Wk, 25° C.)
94.4 % Area: Purity (% Area) ([2]; Phosphate Buffer, 2 Wk, 40° C.)
91.4 % Area: Purity (% Area) ([2]; Phosphate Buffer, 3 Wk, 40° C.)
4.8: pH ([2]; Acetate Buffer, 1 Wk, 25° C.)
7.0: pH ([2]; Phosphate Buffer, 1 Wk, 25° C.) | pH ([2]; Phosphate Buffer, 1 Wk, 40° C.)
95.9 % Area: Purity (% Area) ([2]; Phosphate Buffer, 1 Wk, 40° C.)
99.8 % Area: Purity (% Area) ([2]; Acetate Buffer, 1 Wk, 60° C.) | Purity (% Area) ([2]; Acetate Buffer, Time 0) | Purity (% Area) ([2]; Hydroxide Buffer, 1 Wk, 40° C.)
99.4 % Area: Purity (% Area) ([2]; Phosphate Buffer, 1 Wk, 25° C.)
99.7 % Area: Purity (% Area) ([2]; Acetate Buffer, 1 Wk, 25° C.) | Purity (% Area) ([2]; Acetate Buffer, 1 Wk, 40° C.) | Purity (% Area) ([2]; Acetate Buffer, 2 Wk, 25° C.) | Purity (% Area) ([2]; Acetate Buffer, 2 Wk, 40° C.) | Purity (% Area) ([2]; Acetate Buffer, 2 Wk, 60° C.) | Purity (% Area) ([2]; Acetate Buffer, 3 Wk, 40° C.) | Purity (% Area) ([2]; Hydroxide Buffer, 1 Wk, 25° C.) | Purity (% Area) ([2]; Hydroxide Buffer, 2 Wk, 25° C.) | Purity (% Area) ([2]; Hydroxide Buffer, Time 0)
95.4 % Area: Purity (% Area) ([2]; Phosphate Buffer, 2 Wk, 25° C.)
No change: Appearance ([2]; Acetate Buffer, 1 Wk, 25° C.) | Appearance ([2]; Acetate Buffer, 1 Wk, 40° C.) | Appearance ([2]; Acetate Buffer, 1 Wk, 60° C.) | Appearance ([2]; Acetate Buffer, 2 Wk, 25° C.) | Appearance ([2]; Acetate Buffer, 2 Wk, 40° C.) | Appearance ([2]; Acetate Buffer, 2 Wk, 60° C.) | Appearance ([2]; Acetate Buffer, 3 Wk, 25° C.) | Appearance ([2]; Acetate Buffer, 3 Wk, 40° C.) | Appearance ([2]; Acetate Buffer, 3 Wk, 60° C.) | Appearance ([2]; Hydroxide Buffer, 1 Wk, 25° C.) | Appearance ([2]; Hydroxide Buffer, 1 Wk, 40° C.) | Appearance ([2]; Hydroxide Buffer, 1 Wk, 60° C.) | Appearance ([2]; Hydroxide Buffer, 2 Wk, 25° C.) | Appearance ([2]; Hydroxide Buffer, 2 Wk, 40° C.) | Appearance ([2]; Hydroxide Buffer, 2 Wk, 60° C.) | Appearance ([2]; Hydroxide Buffer, 3 Wk, 25° C.) | Appearance ([2]; Hydroxide Buffer, 3 Wk, 40° C.) | Appearance ([2]; Hydroxide Buffer, 3 Wk, 60° C.) | Appearance ([2]; Phosphate Buffer, 1 Wk, 25° C.) | Appearance ([2]; Phosphate Buffer, 1 Wk, 40° C.) | Appearance ([2]; Phosphate Buffer, 1 Wk, 60° C.) | Appearance ([2]; Phosphate Buffer, 2 Wk, 25° C.) | Appearance ([2]; Phosphate Buffer, 2 Wk, 40° C.) | Appearance ([2]; Phosphate Buffer, 2 Wk, 60° C.) | Appearance ([2]; Phosphate Buffer, 3 Wk, 25° C.) | Appearance ([2]; Phosphate Buffer, 3 Wk, 40° C.) | Appearance ([2]; Phosphate Buffer, 3 Wk, 60° C.)
Clear: Appearance ([2]; Acetate Buffer, Time 0) | Appearance ([2]; Hydroxide Buffer, Time 0) | Appearance ([2]; Phosphate Buffer, Time 0)
0.0049: Partition coefficient P (organic phase/aqueous phase) ([1]; Sample 2: 25 mL aqueous phase, 25 mL organic phase (octanol/water))
least stable: Stability as a function of pH (in words) ([2]; pH 6.8 buffer)
